Assay results taken from patent US20180010188A1, “METHOD FOR DETECTING NONSENSE-MEDIATED RNA DECAY” (The Regents of the University of California, priority 2016, published 2018).

Test system: core NMD factors
Assay: Expression of core NMD factors after thapsigargin
Type: cell-based, mouse
Conditions: 5 hours after thapsigargin treatment (data not shown)
Source text: Thapsigargin is a non-competitive inhibitor of the sarco/endoplasmic reticulum Ca^2+ ATPase (SERCA) (Wictome et al., 1992. Biochem J 283 (Pt 2): 525-529; Lytton et al., 1991. J Biol Chem 266: 17067-17071). Thapsigargin treatment increases intracellular Ca^2+ concentration, which stimulates various Ca^2+ dependent signaling pathways. In fact, Nickless et al. recently reported that intracellular calcium inhibited NMD after administration of thapsigargin (Nickless et al. 2014. Nat Med 20: 961-966). Thapsigargin also induces ER stress. […] The diverging mechanisms reported by these studies were both based on the traditional NMD reporter approach and gene-centric validation. We therefore investigated which of the proposed mechanisms our independent method would support.

C/C=C(/C)C(=O)O[C@H]1C(C)=C2[C@H]([C@@H]1OC(=O)CCCCCCC)[C@@](C)(OC(C)=O)C[C@H](OC(=O)CCC)[C@@]1(O)[C@H]2OC(=O)[C@@]1(C)O [thapsigargin]
expression of core NMD factors: no changes in their expression
